Literature values as cited in patent US20040115266A1, “Oral itraconazole formulations and methods of making the same” (priority 2004, published 2004).

0.1 N Hydrochloric acid solubility (0.1 N Hydrochloric acid): < 6 micrograms per milliliter
water solubility (water): less than 1 microgram per milliliter
Compound: CCC(C)n1ncn(-c2ccc(N3CCN(c4ccc(OCC5COC(Cn6cncn6)(c6ccc(Cl)cc6Cl)O5)cc4)CC3)cc2)c1=O (single isomer, unassigned; (+)) [Itraconazole, (+)-cis-4-[4-[4-[4-[[2-(2,4-dichlorophenyl)-2-(1H-1,2,4-triazol-1-ylmethyl)-1,3-dioxolan-4-yl]methoxy]phenyl]-1-piperazinyl]phenyl]-2,4-dihydro-2-(1-methylpropyl)-3H-1,2,4-triazol-3-one]
